Experiments:
[1] = test system: EHV1 (isolate 03P37); assay type: cell-based, equine herpesvirus type 1
[2] = test system: Actinobacillus equuli subsp. equuli (4005); assay: MIC assay, bacterial growth inhibition; assay type: cell-based; conditions: Gram-negative; Mueller-Hinton II broth, ~10^6 CFU/ml, 0 to 100 μg/ml eBD, 24 h, 37°C, 5% CO2; lowest concentration with no visible bacterial growth
Procedure: (§1) To ensure that eBD1, -2, and -3 are potent antimicrobial peptides, a MIC test was performed to determine inhibition of the growth of a number of Gram-positive and Gram-negative bacteria found in the equine respiratory tract by eBDs. The examined concentration range of eBDs ([…] to 100 μg/ml) was chosen based on the antimicrobially active concentration range of human BDs ([21][–][25]).
(§2) Clinical bacterial isolates were used in a MIC assay to investigate the sensitivity of bacterial pathogens from the equine respiratory tract to eBDs. The test organisms included the Gram-positive bacteria Streptococcus equi subsp. zooepidemicus (strain 4001), Streptococcus equi subsp. equi (strain 3830), Staphylococcus aureus (strain 3939), and Rhodococcus equi (strain 3851) and the Gram-negative bacteria Actinobacillus equuli subsp. equuli (strain 4005) and Bordetella bronchiseptica (strain 3033). All organisms were grown on Oxoid sheep blood agar plus plates (Thermo Fisher Scientific) overnight in a humidified incubator (5% CO2) at 37°C. Inocula were prepared by swabbing bacterial colonies from the plates, suspending them in PBS (turbidity equivalent to a 0.5 McFarland standard), and diluting this suspension 1:100 in Mueller-Hinton II (MH) broth (BD Biosciences, San Jose, CA, USA), achieving a final concentration of approximately 10^6 CFU/ml. eBDs were serially 2-fold diluted in MH broth at concentrations ranging from 200 μg/ml to 0.02 μg/ml and pipetted into 96-well microtiter plates (Greiner Bio, Kremsmünster, Austria). The inoculum was added to the eBD dilutions 1:1, and the bacteria were incubated in a humidified incubator (5% CO2) at 37°C for 24 h. MIC values were determined as the lowest concentration of eBD at which there was no visible bacterial growth.

[3] = test system: Staphylococcus aureus (3939); assay: MIC assay, bacterial growth inhibition; assay type: cell-based; conditions: Gram-positive; Mueller-Hinton II broth, ~10^6 CFU/ml, 0 to 100 μg/ml eBD, 24 h, 37°C, 5% CO2; lowest concentration with no visible bacterial growth
Procedure: as §1, §2

[4] = test system: Streptococcus equi subsp. zooepidemicus (4001); assay: MIC assay, bacterial growth inhibition; assay type: cell-based; conditions: Gram-positive; Mueller-Hinton II broth, ~10^6 CFU/ml, 0 to 100 μg/ml eBD, 24 h, 37°C, 5% CO2; lowest concentration with no visible bacterial growth
Procedure: as §1, §2

[5] = test system: Bordetella bronchiseptica (3033); assay: MIC assay, bacterial growth inhibition; assay type: cell-based; conditions: Gram-negative; Mueller-Hinton II broth, ~10^6 CFU/ml, 0 to 100 μg/ml eBD, 24 h, 37°C, 5% CO2; lowest concentration with no visible bacterial growth
Procedure: as §1, §2

[6] = test system: Rhodococcus equi (3851); assay: MIC assay, bacterial growth inhibition; assay type: cell-based; conditions: Gram-positive; Mueller-Hinton II broth, ~10^6 CFU/ml, 0 to 100 μg/ml eBD, 24 h, 37°C, 5% CO2; lowest concentration with no visible bacterial growth
Procedure: as §1, §2

[7] = test system: Streptococcus equi subsp. equi (3830); assay: MIC assay, bacterial growth inhibition; assay type: cell-based; conditions: Gram-positive; Mueller-Hinton II broth, ~10^6 CFU/ml, 0 to 100 μg/ml eBD, 24 h, 37°C, 5% CO2; lowest concentration with no visible bacterial growth
Procedure: as §1, §2

[8] = test system: equine polymorphonuclear (PMN) cells; assay: CytoSelect cell migration (chemotaxis) assay; conditions: 0 to 10 μg/ml; 96-well Boyden chamber, 5-μm pores; RFU; three donor horses
[9] = test system: equine influenza virus (A/equine/Kentucky/98, H3N8); assay type: cell-based
[10] = test system: EHV1 particles binding to EREC; assay type: cell-based, equine herpesvirus type 1
[11] = test system: equine arteritis virus (08P178); assay type: cell-based
[12] = test system: equine CD172a+ monocytic cells; assay: CytoSelect cell migration (chemotaxis) assay; conditions: 0 to 10 μg/ml, 96-well Boyden chamber
[13] = test system: EIV; assay type: cell-based, equine influenza virus
[14] = test system: equine CD3+ T lymphocytes; assay: CytoSelect cell migration (chemotaxis) assay; conditions: 0 to 10 μg/ml; 96-well Boyden chamber, 5-μm pores; RFU; three donor horses
[15] = test system: EHV1 particles binding to RK13 cells; assay type: cell-based, equine herpesvirus type 1
[16] = test system: EHV1; assay type: cell-based, equine herpesvirus type 1
[17] = test system: EHV1 RacL11 Δgp2; assay type: cell-based, equine herpesvirus type 1
[18] = test system: EHV1 RacL11; assay type: cell-based, equine herpesvirus type 1
[19] = test system: EHV1 RacL11 ΔgM; assay type: cell-based, equine herpesvirus type 1

Row | Compound | MIC [2] [µg/mL] | MIC [3] [µg/mL] | MIC [4] [µg/mL] | MIC [5] [µg/mL] | MIC [6] [µg/mL] | MIC [7] [µg/mL] | concentration of maximal migration of equine PMN cells [8] [ng/mL] | protection of cells from subsequent EIV infection [9] | protection of cells from subsequent EHV1 infection [1] | number of EHV1 particles bound per EHV1-positive EREC [10] | percentage of EREC with bound EHV1 particles [10] | protection of cells from subsequent EAV infection [11] | chemotaxis of equine monocytic cells [12] | EIV entry in EREC [13] | EIV infectivity in EREC [13] | concentration of maximal migration of equine T lymphocytes [14] [µg/mL] | percentage of RK13 cells with bound EHV1 particles [15] | formation of EIV plaques in MDCK cells [9] | average EHV1 plaque diameter [1] | increase in EHV1 infection in RK13 cells (number of plaques and plaque diameter) [1] [fold] | other results
1 | Nc1nc(O)c2ncn(COC(CO)CO)c2n1 [ganciclovir, reference compound] |  |  |  |  |  |  |  |  |  |  |  |  |  |  |  |  |  |  |  |  | formation and spread of EHV1 plaques [1]: almost completely blocked
2 | MRAPYFLLLTLCLFCCQMSSGVGYLTGLGHRSDHYICARSGGTCHFSSCPLFTKIEGTCYGGKAKCCL (also: bicyclic or more (positions not given here)) [eBD1, chemically synthesized equine β-defensin, named according to its human homolog] | >100 | >100 | >100 | >100 | >100 | >100 | 1 | failed to protect | failed to protect | did not significantly differ | 17% ± 6% | failed to protect | failed to induce | no effect on EIV entry | did not alter EIV infectivity | 1 | 0.78% ± 0.76% |  |  |  | 
3 | MRIHFLLFALLFLFLMPVPGNGGIINMLQKSYCKIRKGRCALLGCLPKEEQIGSCSVSGRKCCRKKK (also: bicyclic or more (positions not given here)) [eBD3, chemically synthesized equine β-defensin, named according to its human homolog] | 25 | >100 | >100 | 100 | 25 | 100 | 1 | failed to protect | failed to protect | doubled | 36% ± 8% | failed to protect |  | no effect on EIV entry | did not alter EIV infectivity | 1 | 1.26% ± 1.34% | decreased | doubling | 3.5 | EIV infection of MDCK cells [9]: almost completely preventing infection; EIV infectivity [9]: decreased; EHV1 infectivity [1]: no effect; increase in susceptibility of RK13 cells to EHV1 (number of plaques) [1]: 1.5 fold; EAV infectivity [11]: no effect; formation of EAV plaques in RK13 cells [11]: decreased; EHV1 infection of EREC [16]: not able to infect EREC more efficiently; concentration of maximal migration of equine monocytic cells ([12]; 5-μm pores, RFU, three donor horses, P < 0.05): 1 µg/mL; EIV infection of EREC [13]: diminishing subsequent infection of EREC; virus particles bound per positive RK13 cell, relative to eBD1 or control pretreatment [15]: up to 2 fold
4 | MRILHFLLAFLIVFLLPVPGFTAGIETSFSCSQNGGFCISPKCLPGSKQIGTCILPGSKCCRKK (also: bicyclic or more (positions not given here)) [eBD2, chemically synthesized equine β-defensin, named according to its human homolog] | 25 | >100 | >100 | 100 | >100 | >100 |  | failed to protect | failed to protect | did not significantly differ | 17% ± 5% | failed to protect | failed to induce | no effect on EIV entry | did not alter EIV infectivity | 1 | 0.86% ± 0.97% | decreased | doubling | 3.5 | infectivity of RacL11 Δgp2 in RK13 cells [17]: increase in infectivity; infectivity of parental RacL11 strain in RK13 cells [18]: enhanced; formation of EAV plaques in RK13 cells [11]: decreased; infectivity of RacL11 ΔgM in RK13 cells [19]: diminished; EHV1 infection of EREC [16]: not able to infect EREC more efficiently; EIV infection of EREC [13]: diminishing subsequent infection of EREC; virus particles bound per positive RK13 cell, relative to eBD1 or control pretreatment [15]: up to 2 fold
5 | heparin [reference compound] |  |  |  |  |  |  |  |  |  |  |  |  |  |  |  |  |  |  |  |  | EHV1 final plaque diameter in RK13 cells [1]: did not alter; EHV1 plaque formation in RK13 cells [1]: inhibited
